≈ marks a conversion by molar mass, not a printed value.
Conditions: buffer; pH 7.4; 200.0 µM

Point of comparison: `COc1ccc(NC(=O)NCCCCc2ccccc2)cc1`, solubility kinetic 2.1 µg/mL (≈ 7.04 µM). Against it:
- COC(CNC(=O)c1coc2nc3ccccc3nc12)OC — 17-fold higher, 34.8 µg/mL (≈ 115 µM)
- C=CCNC(=S)Nc1ccc(N(C)C)cc1 — higher, > 35.3 µg/mL
- CCc1cccc(C)c1NC(=O)CN1C(=O)NC(C)(CCC(C)C)C1=O (stereo unspecified) — higher, > 53.9 µg/mL
- COc1cc(/C=C2\SC(N)=NC2=O)cc(OC)c1 — 1.8-fold higher, 3.8 µg/mL (≈ 14.4 µM)
- COc1ncnc(-c2ccccc2)c1-c1ccccc1 — 7.1-fold higher, 14.9 µg/mL (≈ 56.8 µM)
- O=C(CNS(=O)(=O)c1ccccc1)NCC(=O)N1CCCCC1 — higher, > 50.9 µg/mL
- CC(Sc1nncn1C)C(=O)Nc1ccc(N2CCCCC2)cc1 (stereo unspecified) — higher, > 51.8 µg/mL
- O=C(Nc1cccc2ccccc12)OCc1cncs1 — higher, > 42.6 µg/mL
- CCOc1ccc(C(=O)O/N=C(\N)c2ccccn2)cc1OCC — 10-fold higher, 21.4 µg/mL (≈ 65 µM)
- Cc1cc(C)nc(Nc2cccc3ccccc23)n1 — 8.9-fold higher, 18.7 µg/mL (≈ 75 µM)
- O=C1CNC(c2ccccc2Cl)c2cc(Br)ccc2N1 (stereo unspecified) — 2.6-fold lower, 0.8 µg/mL (≈ 2.28 µM)
- O=C(OCc1cccc([N+](=O)[O-])c1)c1cc(=O)[nH]c2ccccc12 — lower, < 0.3 µg/mL
- O=[N+]([O-])c1ccc(Sc2cc[n+]([O-])c3ccccc23)c([N+](=O)[O-])c1 — 2.2-fold higher, 4.6 µg/mL (≈ 13.4 µM)
- COc1ccc(C(CC(=O)N2CCCCC2)C(C)C)cc1 (stereo unspecified) — higher, > 43.4 µg/mL
- Cc1ccc(NC(=O)CSc2nc(C)c(Cc3ccccc3)c(=O)[nH]2)cc1 — 1.5-fold lower, 1.4 µg/mL (≈ 3.69 µM)
- O=C(c1ccco1)N1CCN(C(=O)N2CCCC2)CC1 — 18-fold higher, 38.7 µg/mL (≈ 140 µM)
- Cc1ccccc1CN1C(=O)c2ccccc2Sc2ccc(C(=O)O)cc21 — 24-fold higher, 51.1 µg/mL (≈ 136 µM)
- O=C1CSCC(=O)N1Cc1ccc(Cl)c(Cl)c1 — 21-fold higher, 43.2 µg/mL (≈ 149 µM)
- CCCN1C(=O)c2ccccc2NC1c1ccc(Cl)cc1 (stereo unspecified) — 1.5-fold higher, 3.2 µg/mL (≈ 10.6 µM)
- COc1cccc(/C=C/C(=O)OCC(=O)NCCC2=CCCCC2)c1OC — 3.3-fold higher, 6.9 µg/mL (≈ 18.5 µM)
- NC(=O)c1ccc(=O)n(Cc2ccc(F)c(F)c2)c1 — higher, > 39.6 µg/mL
- COc1ccccc1NC(=S)N(Cc1cccnc1)Cc1ccco1 — 23-fold higher, 48.3 µg/mL (≈ 137 µM)
- O=C(Nc1ccccc1Oc1ccccc1)c1cccs1 — 7.2-fold higher, 15.2 µg/mL (≈ 51.5 µM)
- COCCn1c(C)cc(C(=O)COC(=O)c2cccnc2SC)c1C — 2.5-fold higher, 5.2 µg/mL (≈ 14.3 µM)
- CC(C)c1cccc(C(C)C)c1OCCCCCN1CCOCC1 — 16-fold higher, 33.4 µg/mL (≈ 100 µM)
- S=C(NCc1ccco1)Nc1ccc(Br)cn1 — 2.4-fold higher, 5 µg/mL (≈ 16 µM)
- COCCn1c(-c2ccc(F)cc2)nc2oc3cc(OC)ccc3c(=O)c2c1=O — 10-fold higher, 21.1 µg/mL (≈ 53.2 µM)
- CC(OC(=O)c1ccccc1O)C(=O)Nc1cccc(Cl)c1 (stereo unspecified) — within 1.5-fold, 2 µg/mL (≈ 6.26 µM)
- O=C(Nc1cccc([N+](=O)[O-])c1)C1C2CC/C=C\CCC21 (stereo unspecified) — 2.6-fold lower, 0.8 µg/mL (≈ 2.79 µM)
- COc1ccc(C(=O)Nc2ccc3ccccc3n2)cc1OC — 3-fold lower, 0.7 µg/mL (≈ 2.27 µM)
- Cc1ccc(C)c(OCCCN2CCc3ccccc3C2)c1.Cl — 6.7-fold higher, 14 µg/mL
- CCC(=O)Nc1c(-c2ccc(C)cc2)nc2ccc(C)cn12 — 14-fold higher, 30.4 µg/mL (≈ 104 µM)
- CCOc1ccccc1NC(=O)Nc1ccc(CC#N)cc1 — 18-fold higher, 37.8 µg/mL (≈ 128 µM)
- O=C(NCCC(=O)N1CCc2ccccc21)c1ccco1 — higher, > 42.6 µg/mL
- CCN(C(=O)COC(=O)c1ccc[nH]c1=O)c1cccc2ccccc12 — higher, > 52.6 µg/mL
- Cc1ccccc1NC(=O)NC1CCCCCCC1 — within 1.5-fold, 1.5 µg/mL (≈ 5.76 µM)
- CC1CCCN(C(=O)COC(=O)Cc2c(F)cccc2Cl)C1 (stereo unspecified) — 19-fold higher, 40.9 µg/mL (≈ 125 µM)
- CN1C(=O)C(=Cc2ccc(N3CCCCCC3)cc2)C(=O)N(C)C1=O — 3.3-fold higher, 7 µg/mL (≈ 20.5 µM)
- Cc1cccc(N(Cc2ccccc2)C(=O)CCl)c1 — higher, > 41.1 µg/mL
- O=C1/C(=C\c2ccc(O)c(O)c2)N=C2CCCCCN12 — higher, > 40.8 µg/mL
- CN(Cc1ccc(F)cc1)Cc1nc(-c2ccccc2)no1 — 2.1-fold higher, 4.4 µg/mL (≈ 14.8 µM)
- COc1cccc(C(=O)Nc2cccnc2)c1OC — higher, > 38.7 µg/mL
- O=C(/C=C/c1cccc(F)c1)NCc1ccc2c(c1)OCO2 — 1.6-fold higher, 3.3 µg/mL (≈ 11 µM)
- Cc1csc2c(=O)sc(NC(=O)c3ccc(F)cc3Cl)nc12 — lower, < 0.4 µg/mL
- OC1CCCN(CC(O)c2ccccc2)C1 (stereo unspecified) — 12-fold higher, 25 µg/mL (≈ 113 µM)
- COCCCNC(=S)Nc1cccc(SC)c1 — higher, > 40.6 µg/mL
- CCOc1ccc(NC(=S)NC23CN4CN(CN(C4)C2)C3)cc1 — higher, > 50 µg/mL
- COc1ccc(S(=O)(=O)N2CCC(C(=O)NC3CC3)CC2)cc1 — higher, > 50.8 µg/mL
- Cl.N#C/C=C/N1CCN(Cc2ccc3c(c2)OCO3)CC1 — higher, > 46.2 µg/mL
- N=c1oc2ccccc2cc1C(=O)NC1CCCCCC1 — 7.6-fold higher, 15.9 µg/mL (≈ 55.9 µM)
- CCOc1ccc(N2CC(C(=O)NCc3ccccn3)CC2=O)cc1 (stereo unspecified) — 18-fold higher, 37.5 µg/mL (≈ 110 µM)
- Cc1cccc(C(=O)O/N=C(/c2ccccc2)c2ccncc2)c1 — lower, < 0.3 µg/mL
- Cc1cccc(NC(=S)N(CCc2ccncc2)C(C)C)c1C — 15-fold higher, 32.5 µg/mL (≈ 99.2 µM)
- CCc1c(O)c(-c2ccccc2)c(=O)n(-c2ccccn2)c1-c1ccccc1 — higher, > 55.3 µg/mL
- Cc1cc(C)nc(NC(=O)c2cccs2)n1 — higher, > 35 µg/mL
- Cc1ncc(CN2CCCC(C(=O)c3cccc(Cl)c3)C2)s1 (stereo unspecified) — 21-fold higher, 43.2 µg/mL (≈ 129 µM)
- Cc1cc2c(Nc3ccc(O)cc3)ncnc2s1.Cl — higher, > 44.1 µg/mL
- COc1ccc(CC(=O)NCCCCc2ccccc2)cc1OC — higher, > 49.1 µg/mL
- CC1=C(C)CC(C(=O)NC(C)CCc2ccccc2)C(C(=O)O)C1 (stereo unspecified) — higher, > 49.4 µg/mL
- Cc1ccc(S(=O)(=O)NCc2cccnc2)cc1 — higher, > 39.3 µg/mL
- Cn1cc(CC(=O)NCc2ccc(F)cc2)c2ccccc21 — higher, > 44.5 µg/mL
- CN(CC(=O)Nc1cccc(F)c1)CC(=O)Nc1ccccc1[N+](=O)[O-] — 24-fold higher, 49.7 µg/mL (≈ 138 µM)
- Cc1ccc(S(=O)(=O)N2CCOCC2)cc1NCC(=O)Nc1ccc(OC(F)(F)F)cc1 — within 1.5-fold, 3 µg/mL (≈ 6.34 µM)
- Cc1cc(C)cc(C(=O)OCC(=O)NCc2ccco2)c1 — higher, > 43.1 µg/mL
- COc1cccc(C(=O)NCCNC(=O)c2cnccn2)c1 — 15-fold higher, 30.9 µg/mL (≈ 103 µM)
- Cc1cc(=O)[nH]c(SCC(=O)c2ccc(O)c(O)c2)n1 — higher, > 43.8 µg/mL
- Cc1nc(-c2ccccc2)sc1C(=O)/C=C/N(C)C — 17-fold higher, 36.3 µg/mL (≈ 133 µM)
- O=[N+]([O-])c1ccc(S(=O)(=O)NCCCc2ccccc2)cc1 — 13-fold higher, 28 µg/mL (≈ 87.4 µM)
- CC(C)c1ccccc1OCC(=O)N1CCCN(C)CC1 — higher, > 43.6 µg/mL
- COc1ccc(-n2cc(-c3ccccc3)c3c(=S)nc[nH]c32)cc1 — 3.5-fold lower, 0.6 µg/mL (≈ 1.8 µM)
- COc1ccccc1CNS(=O)(=O)c1cc(C(=O)NCC2CCCO2)c(Cl)cc1Cl (stereo unspecified) — higher, > 71 µg/mL
- Cc1cc(C)c2c(=O)c(C#N)coc2c1 — 13-fold higher, 26.4 µg/mL (≈ 133 µM)
- O=S(=O)(CC(c1ccccc1)N1CCCCC1)c1ccc(Cl)cc1 (stereo unspecified) — 2-fold higher, 4.2 µg/mL (≈ 11.5 µM)
- COc1ccc(C)cc1NC(=O)NCCCCc1ccccc1 — 5.2-fold lower, 0.4 µg/mL (≈ 1.28 µM)
- CCN(CC(=O)NCc1cccs1)C(=O)c1cccc(S(=O)(=O)N2CC(C)OC(C)C2)c1 (stereo unspecified) — higher, > 71.9 µg/mL
- CN1CCN(NC(=O)CC(C)(C)C)CC1 — higher, > 32 µg/mL
- COc1ccc(CC2CC(=O)N(c3ccc(C)cc3)C2=O)cc1 (stereo unspecified) — 2.1-fold higher, 4.4 µg/mL (≈ 14.2 µM)
- COc1ccc(S(=O)(=O)NCc2ccccn2)c(C)c1C — 16-fold higher, 32.8 µg/mL (≈ 107 µM)
- Cc1noc(C)c1C(=O)OCC(=O)Nc1ccc(N2CCOCC2)cc1 — 3.6-fold higher, 7.6 µg/mL (≈ 21.1 µM)
- FC(F)(F)c1cccc(-c2nc(-c3ccncc3)no2)c1 — 5.2-fold lower, 0.4 µg/mL (≈ 1.37 µM)
- COc1ccc(N=Cc2cc(Cl)ccc2O)cc1Cl — 8.6-fold higher, 18 µg/mL (≈ 60.8 µM)
- COc1ccc(NC(=O)NCc2ccccn2)c(OC)c1 — 20-fold higher, 42.1 µg/mL (≈ 147 µM)
- CC(C)C(=O)N1CCN(c2nc3ccc(Cl)cc3s2)CC1 — higher, > 48.6 µg/mL
- NC(=O)c1ccc(N2CCC(C(N)=O)CC2)c([N+](=O)[O-])c1 — 18-fold higher, 38.4 µg/mL (≈ 131 µM)
- Nc1cc(OCC(F)(F)F)cc(OCC(F)(F)F)c1 — higher, > 43.4 µg/mL

From PubChem BioAssay AID1996
